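96-well plates; 48 h exposure; 5 concentrations. Endpoints by linear interpolation between flanking doses. Not reached: highest tested concentration assigned. GI50: concentration for 50% inhibition of growth. At the TGI there is no net growth.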
Key:
Experiment in all cases: inhibition of tumour cell growth, NCI panel, 48 h
MALME-3M melanoma = test system: MALME-3M melanoma
HCC-2998 colon = test system: HCC-2998 colon
OVCAR-5 ovarian = test system: OVCAR-5 ovarian
SNB-19 CNS = test system: SNB-19 CNS
LOX IMVI melanoma = test system: LOX IMVI melanoma
TK-10 renal = test system: TK-10 renal
HT29 colon = test system: HT29 colon
IGROV1 ovarian = test system: IGROV1 ovarian
M14 melanoma = test system: M14 melanoma
MDA-MB-435 = test system: MDA-MB-435

## CCCCCCC[CH2][Sn]1([CH2]CCCCCCC)[O]C(=O)c2cccnc2[S]1
MALME-3M melanoma
  GI50: > 100 µM
  TGI: > 100 µM
HCC-2998 colon
  GI50: > 100 µM
  TGI: > 100 µM
OVCAR-5 ovarian
  GI50: > 100 µM
  TGI: > 100 µM
SNB-19 CNS
  GI50: > 100 µM
  TGI: > 100 µM
LOX IMVI melanoma
  GI50: > 100 µM
  TGI: > 100 µM
TK-10 renal
  GI50: > 100 µM
  TGI: > 100 µM
HT29 colon
  GI50: > 100 µM
  TGI: > 100 µM
IGROV1 ovarian
  GI50: > 100 µM
  TGI: > 100 µM
M14 melanoma
  GI50: > 100 µM
  TGI: > 100 µM

## O=C(NCCCCN=c1cccccc1NCCCCNC(=O)OCc1ccccc1)OCc1ccccc1
MALME-3M melanoma
  TGI: 40.6 µM
HCC-2998 colon
  TGI: 32.1 µM
OVCAR-5 ovarian
  TGI: 41.9 µM
SNB-19 CNS
  TGI: 79.8 µM
LOX IMVI melanoma
  TGI: 30 µM
TK-10 renal
  TGI: 53.9 µM
HT29 colon
  TGI: 18.7 µM
IGROV1 ovarian
  TGI: 54.1 µM
M14 melanoma
  TGI: 29.4 µM

## COc1ccc(C(O)c2nccn2C)c(OC)c1 (configuration not stated)
MALME-3M melanoma
  TGI: > 100 µM
HCC-2998 colon
  TGI: > 100 µM
OVCAR-5 ovarian
  TGI: > 100 µM
SNB-19 CNS
  TGI: > 100 µM
TK-10 renal
  TGI: > 100 µM
HT29 colon
  TGI: > 100 µM
IGROV1 ovarian
  TGI: > 100 µM
M14 melanoma
  TGI: > 100 µM

## COc1ccc2oc(-c3cccnc3)cc(=O)c2c1
MALME-3M melanoma
  TGI: > 100 µM
HCC-2998 colon
  TGI: > 100 µM
SNB-19 CNS
  TGI: > 100 µM
LOX IMVI melanoma
  TGI: > 100 µM
HT29 colon
  TGI: > 100 µM
IGROV1 ovarian
  TGI: > 100 µM
M14 melanoma
  TGI: > 100 µM

## Ic1ccc(-n2nnnc2-c2cnoc2-c2ccccc2)cc1
MALME-3M melanoma
  GI50: > 44.2 µM
  TGI: > 73.6 µM
OVCAR-5 ovarian
  GI50: > 100 µM
  TGI: > 100 µM
SNB-19 CNS
  GI50: > 63.1 µM
  TGI: > 100 µM
LOX IMVI melanoma
  GI50: 49.3 µM
  TGI: > 100 µM
TK-10 renal
  GI50: 41.5 µM
  TGI: > 82.3 µM
HT29 colon
  GI50: > 100 µM
  TGI: > 100 µM
IGROV1 ovarian
  GI50: > 73.6 µM
  TGI: > 100 µM
M14 melanoma
  GI50: 37.6 µM
  TGI: > 67.3 µM
MDA-MB-435
  GI50: 24.5 µM
  TGI: > 57.5 µM

## C1CSCCSCCS1
HCC-2998 colon
  TGI: > 100 µM
OVCAR-5 ovarian
  TGI: > 100 µM
SNB-19 CNS
  TGI: > 100 µM
LOX IMVI melanoma
  TGI: > 100 µM
TK-10 renal
  TGI: > 100 µM
HT29 colon
  TGI: > 100 µM
IGROV1 ovarian
  TGI: > 100 µM
M14 melanoma
  TGI: > 100 µM
MDA-MB-435
  TGI: > 100 µM

## CCOc1ccc(N2C(=O)/C(=C/c3ccc(N(CCC#N)CCC#N)cc3)N=C2c2cc([N+](=O)[O-])ccc2Cl)cc1
HCC-2998 colon
  TGI: > 100 µM
OVCAR-5 ovarian
  TGI: > 100 µM
SNB-19 CNS
  TGI: > 100 µM
LOX IMVI melanoma
  TGI: 62.6 µM
TK-10 renal
  TGI: > 100 µM
M14 melanoma
  TGI: 61.3 µM

## CCOC(=O)C1(c2ccccc2)CCC(=O)CC1
MALME-3M melanoma
  TGI: > 100 µM
HCC-2998 colon
  TGI: > 100 µM
OVCAR-5 ovarian
  TGI: > 100 µM
SNB-19 CNS
  TGI: > 100 µM
LOX IMVI melanoma
  TGI: > 100 µM
TK-10 renal
  TGI: > 100 µM
HT29 colon
  TGI: > 100 µM
IGROV1 ovarian
  TGI: > 100 µM
M14 melanoma
  TGI: > 100 µM

## Cc1ccc(S(=O)(=O)N/N=C/c2oc(-c3ccncc3)c(-c3ccncc3)c2[N+](=O)[O-])cc1
MALME-3M melanoma
  TGI: > 100 µM
HCC-2998 colon
  TGI: > 100 µM
OVCAR-5 ovarian
  TGI: > 100 µM
SNB-19 CNS
  TGI: > 100 µM
LOX IMVI melanoma
  TGI: > 100 µM
TK-10 renal
  TGI: > 100 µM
HT29 colon
  TGI: > 100 µM
IGROV1 ovarian
  TGI: > 100 µM
M14 melanoma
  TGI: > 100 µM

## O=C1NC(=S)NNC12c1ccccc1-c1ccccc12
MALME-3M melanoma
  TGI: > 10 µM
HCC-2998 colon
  TGI: > 10 µM
LOX IMVI melanoma
  TGI: > 10 µM
TK-10 renal
  TGI: > 10 µM
HT29 colon
  TGI: > 10 µM
IGROV1 ovarian
  TGI: > 10 µM
M14 melanoma
  TGI: > 10 µM

## C[C@H]1NC(=O)C2CCCCN2C(=O)CN(C)C(=O)CNC(=O)C2CCCCN2C(=O)[C@@H](NC(=O)c2nc3ccccc3cc2O)[C@@H](C)NC(=O)C2CCCCN2C(=O)CN(C)C(=O)CNC(=O)[C@@H]2CCCCN2C(=O)C1NC(=O)c1nc2ccccc2cc1O (some centres not stated)
MALME-3M melanoma
  TGI: 0.388 µM
HCC-2998 colon
  TGI: 0.479 µM
OVCAR-5 ovarian
  TGI: 7.55 µM
SNB-19 CNS
  TGI: 2.11 µM
LOX IMVI melanoma
  TGI: > 100 µM
TK-10 renal
  TGI: > 100 µM
HT29 colon
  TGI: > 100 µM
IGROV1 ovarian
  TGI: > 100 µM
M14 melanoma
  TGI: 1.27 µM

## O=C(O)[C@H](NS(=O)(=O)c1ccc2ccccc2c1)c1ccccc1
MALME-3M melanoma
  TGI: > 100 µM
HCC-2998 colon
  TGI: > 100 µM
OVCAR-5 ovarian
  TGI: > 100 µM
SNB-19 CNS
  TGI: > 100 µM
LOX IMVI melanoma
  TGI: > 100 µM
HT29 colon
  TGI: > 100 µM
IGROV1 ovarian
  TGI: > 100 µM
M14 melanoma
  TGI: > 100 µM

## O=c1cc2oc3cc(O)c(O)cc3c(-c3ccccc3O)c-2cc1O
MALME-3M melanoma
  GI50: 53 µM
  TGI: > 100 µM
OVCAR-5 ovarian
  GI50: 44.6 µM
  TGI: > 100 µM
SNB-19 CNS
  GI50: 9.65 µM
  TGI: > 100 µM
LOX IMVI melanoma
  GI50: 4.84 µM
  TGI: 34.2 µM
TK-10 renal
  GI50: 21.9 µM
  TGI: > 100 µM
HT29 colon
  GI50: 44.4 µM
  TGI: > 100 µM
IGROV1 ovarian
  GI50: 6.73 µM
  TGI: > 100 µM
M14 melanoma
  GI50: 6.66 µM
  TGI: 32.1 µM
MDA-MB-435
  GI50: 4.57 µM
  TGI: > 100 µM

## Cc1cn2c(/C=C3\C(=O)Nc4ccc(O)cc43)c(-c3ccc(Cl)cc3)nc2s1
MALME-3M melanoma
  GI50: 14.3 µM
  TGI: 42 µM
OVCAR-5 ovarian
  GI50: 21.2 µM
  TGI: 51.4 µM
SNB-19 CNS
  GI50: 15.2 µM
  TGI: 39.1 µM
LOX IMVI melanoma
  GI50: 21.3 µM
  TGI: > 100 µM
TK-10 renal
  GI50: 18.7 µM
  TGI: 52.2 µM
HT29 colon
  GI50: 18.1 µM
  TGI: 56.2 µM
IGROV1 ovarian
  GI50: 5.56 µM
  TGI: 23.9 µM
M14 melanoma
  GI50: 17 µM
  TGI: > 100 µM
MDA-MB-435
  GI50: 17.6 µM
  TGI: 88.8 µM

## CCOc1ccc2c(c1)[n+]([O-])c(-c1ccccc1Cl)c(N)[n+]2[O-]
MALME-3M melanoma
  TGI: > 100 µM
OVCAR-5 ovarian
  TGI: > 100 µM
SNB-19 CNS
  TGI: > 100 µM
HT29 colon
  TGI: > 100 µM
IGROV1 ovarian
  TGI: > 100 µM
M14 melanoma
  TGI: > 100 µM

## Cc1ccc(NC(=O)C2C(=O)N(c3ccc(C)c(C)c3)C(=O)C2N=N)cc1C (configuration not stated)
MALME-3M melanoma
  TGI: > 100 µM
HCC-2998 colon
  TGI: > 100 µM
OVCAR-5 ovarian
  TGI: > 100 µM
SNB-19 CNS
  TGI: > 100 µM
TK-10 renal
  TGI: > 100 µM
HT29 colon
  TGI: > 100 µM
IGROV1 ovarian
  TGI: > 100 µM
M14 melanoma
  TGI: > 100 µM

## O=C1[C@@H]2C3c4ccccc4C([C@@H]2C(=O)N1c1ccccc1)S3(=O)=O
MALME-3M melanoma
  TGI: > 100 µM
HCC-2998 colon
  TGI: > 100 µM
OVCAR-5 ovarian
  TGI: > 100 µM
SNB-19 CNS
  TGI: > 100 µM
LOX IMVI melanoma
  TGI: > 100 µM
TK-10 renal
  TGI: > 100 µM
HT29 colon
  TGI: > 100 µM
IGROV1 ovarian
  TGI: > 100 µM
M14 melanoma
  TGI: > 100 µM

## COC(=O)[C@]1(C)CCCC2(C)C1CC[C@H]1C=C(C)[C@H]3CCC12C3 (some centres not stated)
MALME-3M melanoma
  TGI: > 100 µM
HCC-2998 colon
  TGI: > 100 µM
OVCAR-5 ovarian
  TGI: > 100 µM
SNB-19 CNS
  TGI: > 100 µM
LOX IMVI melanoma
  TGI: > 100 µM
TK-10 renal
  TGI: > 100 µM
HT29 colon
  TGI: > 100 µM
IGROV1 ovarian
  TGI: > 100 µM
M14 melanoma
  TGI: > 100 µM

## CC(CC(=O)O)C(C(=O)O)C(=O)O (configuration not stated)
MALME-3M melanoma
  TGI: > 100 µM
OVCAR-5 ovarian
  TGI: > 100 µM
SNB-19 CNS
  TGI: > 100 µM
LOX IMVI melanoma
  TGI: > 100 µM
TK-10 renal
  TGI: > 100 µM
HT29 colon
  TGI: > 100 µM
IGROV1 ovarian
  TGI: > 100 µM
M14 melanoma
  TGI: > 100 µM
MDA-MB-435
  TGI: > 100 µM

## CCCn1c(N)c(C(=O)N/N=C(/C)c2cc3cccc(OC)c3o2)sc1=S
MALME-3M melanoma
  GI50: 74 µM
  TGI: > 100 µM
OVCAR-5 ovarian
  GI50: > 100 µM
  TGI: > 100 µM
SNB-19 CNS
  GI50: 30.2 µM
  TGI: > 100 µM
LOX IMVI melanoma
  GI50: 16.5 µM
  TGI: > 100 µM
TK-10 renal
  GI50: 28.8 µM
  TGI: > 100 µM
HT29 colon
  GI50: 16.4 µM
  TGI: > 100 µM
IGROV1 ovarian
  GI50: 48.2 µM
  TGI: > 100 µM
M14 melanoma
  GI50: 53.8 µM
  TGI: > 100 µM
MDA-MB-435
  GI50: 56.6 µM
  TGI: > 100 µM

Reference: PubChem BioAssay (NCI)
